Holding throughout (format): cell-based
The target in one experiment is T1, TPα (Homo sapiens, UniProt P21731).
T1 construct: expressed in transfected cells
T1 sequence (P21731 1-343): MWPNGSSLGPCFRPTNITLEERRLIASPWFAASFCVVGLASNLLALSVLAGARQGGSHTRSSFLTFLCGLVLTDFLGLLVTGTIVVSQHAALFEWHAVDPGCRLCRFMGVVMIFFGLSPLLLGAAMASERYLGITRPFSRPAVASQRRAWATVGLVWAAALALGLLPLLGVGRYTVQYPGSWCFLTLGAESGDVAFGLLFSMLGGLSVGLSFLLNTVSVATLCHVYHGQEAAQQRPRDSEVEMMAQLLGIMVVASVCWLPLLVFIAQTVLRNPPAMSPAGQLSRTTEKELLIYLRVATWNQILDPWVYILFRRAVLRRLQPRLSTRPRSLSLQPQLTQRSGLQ
In words: U46619-induced [Ca2+]i mobilization in HEK.TPα cells. As to conditions: for IC50: HEK.TPα cells, 1 μM U46619, Table 2, read-out: IC50 data for U46619-mediated [Ca2+]i mobilization, TPα; for TPα:TPβ Selectivity Ratio: IC50 TPα/IC50 TPβ. Summed up:
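HEK293 cells loaded with 3 μM Fluo-4 (1 h, 25° C.) in Krebs-HEPES pH 7.4, then pre-incubated with compound for 10 min. Fluorescence at 520 nm tracked after injection of 1 μM U46619. Signal calibrated by Fmax (2% Triton X100) and Fmin (1 mM EGTA).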

In another experiment the target is T2, TPβ (Homo sapiens, UniProt P21731).
T2 construct: expressed in transfected cells
T2 sequence (P21731 1-407 isoform P21731-2): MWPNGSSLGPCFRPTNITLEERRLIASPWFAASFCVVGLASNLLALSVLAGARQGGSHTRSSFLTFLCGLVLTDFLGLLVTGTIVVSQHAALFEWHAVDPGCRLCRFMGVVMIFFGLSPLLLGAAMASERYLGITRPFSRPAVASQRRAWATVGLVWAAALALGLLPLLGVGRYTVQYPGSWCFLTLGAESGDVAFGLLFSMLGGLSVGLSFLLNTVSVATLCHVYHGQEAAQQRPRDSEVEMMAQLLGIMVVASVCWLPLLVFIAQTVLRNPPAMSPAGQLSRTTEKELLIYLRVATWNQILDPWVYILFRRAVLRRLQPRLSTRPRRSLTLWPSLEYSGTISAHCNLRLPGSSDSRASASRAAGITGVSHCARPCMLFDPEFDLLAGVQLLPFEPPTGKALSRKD
Briefly: U46619-induced [Ca2+]i mobilization in HEK.TPβ cells. As to conditions: HEK.TPβ cells; 1 μM U46619; Table 2; read-out: IC50 data for U46619-mediated [Ca2+]i mobilization, TPβ. The procedure, abridged:
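Fluo-4-loaded (3 μM, 1 h, 25° C.) HEK293 TPβ cells in KREBs-HEPES pH 7.4, pre-incubated 10 min with test compound, then stimulated with 1 μM U46619. Fluorescence at 520 nm followed for 75 s, calibrated by Fmax (2% Triton X100) and Fmin (1 mM EGTA).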

The test system of experiment [1] is human platelets. In words: U46619-induced human platelet aggregation ex vivo (platelet rich plasma). As to conditions: human platelets ex vivo, Table 3, read-out: IC50 data for inhibition of U46619-induced platelet aggregation. From the text:
A modification of the turbidimetric method originally developed by Born & Cross (Born, G. V. and Cross, M. J., The Aggregation of Blood Platelets, J Physiol, 1963, 168:178-95) is used. The principle is based on the diffraction of the light by particles. When a light beam passes through a suspension of particles, it is diffracted, depending on the number and the size of the particles in suspension.
In the Born & Cross method, a light beam passes through a platelet suspension and the quantity of light is measured by a detector placed after the sample. Upon platelet aggregation, the size of platelet aggregates will increase while the total number of free platelets will decrease. Consequently, less light will be diffracted and the detector will record an increase in light intensity. The aggregometer has been developed based on these concepts. Variations in light transmission recorded by this device reflects the platelet physiology. When an agonist of platelet aggregation is added to a platelet suspension, platelets undergo activation and shape change. This step is characterized by an increase in platelet's apparent volume and thus a decrease of transmitted light. Subsequent platelet aggregation gradually forms aggregates of increasing size. Transmitted light slightly increases until a plateau is reached. The aggregation of platelet can be confirmed after the experiment by visual direct inspection of the test tube.
Preparation of platelet suspension is achieved by blood centrifugation at 160 g for 10 minutes. The PRP is re-centrifuged at 160 g for 10 min to remove contaminating red and white blood cells. The supernatant which is collected contains the platelets rich plasma (PRP). The remaining blood is subsequently centrifuged at 900 g for 15 min in order to retrieve plasma (platelets poor plasma, PPP). PRP is diluted with PPP to reach a final concentration of 150×10^3 […] PRP is kept warmed at 37° C. in the aggregometer and the adequate dilution of drug to test is introduced in the sample. Platelet aggregation is induced after 10 minutes incubation. Light transmission (T) is measured throughout the experiment, which is ended 8 minutes after induction of aggregation. Maximal light transmission (Tmax) is determined in the sample without drugs. Minimal light transmission (Tmin) is measured in PRP without inducer.
The effect of NTP4 and the previously identified lead TP antagonist, TP20, on U46619-mediated platelet aggregation in side-by-side comparisons was performed in platelet rich plasma (PRP) using the PAP-8E platelet aggregometer.
FIG. 4A-4C show the effect of TP20 & NTP4 on U46619-mediated platelet aggregation. PRP was prepared from blood taken from healthy volunteers into syringes containing 3.8% sodium citrate and 10 μM indomethacin such that the final ratio of anticoagulant to blood was 1:9. Aliquots of PRP (300 μl) were pre-incubated for 10 min with the TP antagonists, TP20 and NTP4, where 2-fold serial dilutions from 1 μM were prepared for each, prior to stimulating platelets with 1 μM U46619, incubated at 37° C., with stirring. FIG. 4A and FIG. 4B: Representative dose-response platelet aggregation profiles for TP20 (FIG. 4A) and NTP4 (FIG. 4B), where data is presented as Percentage Aggregation, as determined by changes in light transmission using the PAP-8E Platelet Aggregation Profiler as a function of time. FIG. 4C: The dose-response curves for platelet aggregation are presented as the mean (±S.E.M.) maximum Percentage Aggregation as a function of the log of the TP antagonist concentration. Data presented is representative of ≧6 independent experiments.

For experiment [2], the system named is human platelets. In words: Thrombin-induced platelet aggregation of human platelets ex vivo. An excerpt: (§1) The method of assessing platelet aggregation also allows evaluation of the effect of the compounds of the invention on platelet aggregation upon stimulation by other agonists, e.g., adenosine diphosphate (ADP) and thrombin.
Experiment [3] has as its system human platelets. Briefly: ADP-induced platelet aggregation of human platelets ex vivo.
Excerpt: as §1

Like-named read-outs stand apart in the source and are kept apart here.

As to `COC(=O)c1ccc(-c2cccc(Oc3ccc([N+](=O)[O-])cc3S(=O)(=O)NC(=O)NC(C)(C)C)c2)cc1` [XLVI], the IC50 was 114 nM on TPα; 36.5 nM at TPβ; 4.12 nM with human platelets [1] (Homo sapiens, Platelet). Besides, the “TPα:TPβ Selectivity Ratio” value at TPα was determined as 3. Further, the “effect on thrombin-induced platelet aggregation” value in the experiment on human platelets [2] is “did not affect”. Moreover, the “effect on ADP-induced platelet aggregation” value in the experiment with human platelets [3] was “did not affect”.

On to `CC(C)(C)NC(=O)NS(=O)(=O)c1cc([N+](=O)[O-])ccc1Oc1cccc(-c2ccc(C(F)(F)F)cc2)c1` [XII], for which the IC50 at TPα is 89.8 nM; on TPβ, 86 nM; in the experiment with human platelets [1] (Homo sapiens, Platelet) it was 129 nM. Further, the “TPα:TPβ Selectivity Ratio” value at TPα was 1. Also, the “effect on thrombin-induced platelet aggregation” value in the experiment with human platelets [2] is listed as “did not affect”. The “effect on ADP-induced platelet aggregation” value in the experiment with human platelets [3] is reported as “did not affect”.

As to `CC(=O)c1ccc(-c2cccc(Oc3ccc([N+](=O)[O-])cc3S(=O)(=O)NC(=O)NC(C)(C)C)c2)cc1` [XLV], the IC50 on TPα is 186 nM; at TPβ, 33.7 nM; in the experiment with human platelets [1] (Homo sapiens, Platelet), 159 nM. Further, the “TPα:TPβ Selectivity Ratio” value at TPα was determined as 5.5. In addition, the “effect on thrombin-induced platelet aggregation” value with human platelets [2] is recorded as “did not affect”. For the same compound, the “effect on ADP-induced platelet aggregation” value in the experiment with human platelets [3] is listed as “did not affect”.

`O=C(O)CCC/C=C\CC1C2CCC(O2)C1CNNC(=O)Nc1ccccc1` (stereo not drawn) [SQ29,548, reference compound]: the IC50 with human platelets [1] (Homo sapiens, Platelet) came to 8.33 nM.

As to `COc1cccc(Oc2ccc([N+](=O)[O-])cc2S(=O)(=O)NC(=O)NC(C)(C)C)c1` [Compound 9h, reference compound], the IC50 on TPα was 612 nM; at TPβ it was 270 nM; with human platelets [1] (Homo sapiens, Platelet) it was 513 nM. At TPα, the “TPα:TPβ Selectivity Ratio” value came out at 2.3.

As for `Cc1ccc(-c2cccc(Oc3ccc([N+](=O)[O-])cc3S(=O)(=O)NC(=O)NC(C)(C)C)c2)cc1` [XLI], the concentration for half-maximal inhibition (IC50) on TPα was 106 nM; on TPβ, 16.5 nM; with human platelets [1] (Homo sapiens, Platelet) it was 230 nM. Further, the “TPα:TPβ Selectivity Ratio” value at TPα is on record as 6.4. Further, the “effect on thrombin-induced platelet aggregation” value with human platelets [2] is recorded as “did not affect”. Besides, in the experiment on human platelets [3], the “effect on ADP-induced platelet aggregation” value is “did not affect”.

On to “N-(tert-butylcarbamoyl)-2-(3-methoxyphenoxy)-5-nitrobenzenesulfonamide [Compound 9ag, reference compound]”, for which the concentration for half-maximal inhibition (IC50) at TPα is 1750 nM; on TPβ, 379 nM; in the experiment with human platelets [1], 985 nM. Moreover, on TPα, the “TPα:TPβ Selectivity Ratio” value came to 4.5.

The values above are taken from patent US9718781B2, “Methods and compounds for treating proliferative disorders and viral infections” (University College Dublin, National University of Ireland, …, priority 2012, dated 2017).
